Source: US7029870B1 (priority 1997, dated 2006)

Tests used:
[1] = test system: α/β/ε GABAA receptors; assay: Benzodiazepine radioligand binding to membranes of cells transfected with α-, β- and ε-subunits; parameters: species or system human, rat; details: radioligand 1–50 nM
[2] = target: T1, α2/β1/ε GABAA receptors (Homo sapiens, UniProt P18505+P47869+P78334, S102A); assay type: cell-based; parameters: The ε-subunit open reading frame was amplified from a hippocampal cDNA library; expressed in transfected cells; host or cells: HEK-293 (transient, calcium phosphate); details: for Block of GABA-evoked currents: inhibitor 10 μM, bath applied
T1 sequence (P47869 29-451): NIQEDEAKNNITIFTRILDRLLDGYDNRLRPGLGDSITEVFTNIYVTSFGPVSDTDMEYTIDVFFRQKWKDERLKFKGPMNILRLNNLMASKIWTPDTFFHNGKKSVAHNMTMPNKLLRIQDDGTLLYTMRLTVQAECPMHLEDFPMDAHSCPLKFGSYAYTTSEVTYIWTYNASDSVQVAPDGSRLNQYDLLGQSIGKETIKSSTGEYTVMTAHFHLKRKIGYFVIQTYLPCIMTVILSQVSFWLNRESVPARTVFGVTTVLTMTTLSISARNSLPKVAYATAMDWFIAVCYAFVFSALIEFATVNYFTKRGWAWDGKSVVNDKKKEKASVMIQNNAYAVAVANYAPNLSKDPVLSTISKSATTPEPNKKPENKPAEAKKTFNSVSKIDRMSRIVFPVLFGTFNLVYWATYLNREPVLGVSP
T1 sequence (P18505 26-474): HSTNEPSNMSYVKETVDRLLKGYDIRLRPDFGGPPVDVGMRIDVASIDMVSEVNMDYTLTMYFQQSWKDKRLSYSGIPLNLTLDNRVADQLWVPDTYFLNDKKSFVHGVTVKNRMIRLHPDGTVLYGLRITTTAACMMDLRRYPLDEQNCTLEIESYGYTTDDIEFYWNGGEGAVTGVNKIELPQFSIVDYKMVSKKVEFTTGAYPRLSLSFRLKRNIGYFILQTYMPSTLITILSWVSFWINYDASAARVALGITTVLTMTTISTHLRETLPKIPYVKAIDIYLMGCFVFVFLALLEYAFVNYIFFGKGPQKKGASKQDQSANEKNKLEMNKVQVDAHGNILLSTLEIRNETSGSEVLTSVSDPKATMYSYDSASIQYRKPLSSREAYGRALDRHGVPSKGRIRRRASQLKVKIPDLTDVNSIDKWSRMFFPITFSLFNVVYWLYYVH
T1 sequence (P78334 23-506 S102A): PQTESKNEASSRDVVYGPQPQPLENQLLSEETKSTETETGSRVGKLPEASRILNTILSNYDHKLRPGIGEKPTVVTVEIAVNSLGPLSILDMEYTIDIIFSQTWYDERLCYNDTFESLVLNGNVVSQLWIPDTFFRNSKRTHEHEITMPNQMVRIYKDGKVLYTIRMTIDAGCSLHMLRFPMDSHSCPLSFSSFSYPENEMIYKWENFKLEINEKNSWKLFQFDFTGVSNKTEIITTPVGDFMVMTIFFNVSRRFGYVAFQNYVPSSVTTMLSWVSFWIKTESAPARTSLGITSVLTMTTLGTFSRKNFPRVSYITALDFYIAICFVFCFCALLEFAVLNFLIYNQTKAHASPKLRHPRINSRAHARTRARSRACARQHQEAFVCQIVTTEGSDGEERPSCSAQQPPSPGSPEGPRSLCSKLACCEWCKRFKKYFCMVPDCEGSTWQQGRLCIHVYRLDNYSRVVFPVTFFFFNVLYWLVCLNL

[3] = test system: α/β/ε GABAA receptors (α2/β1/ε or α1/β3/ε)
[4] = target: T2, α1/β3/ε GABAA receptors (UniProt P28472+P62813+P78334, S102A); parameters: species or system rat α1, human β3, human ε; details: α1/β3/ε subunits; read-out: Maximal stimulation of [3H]muscimol binding to cell membranes
T2 construct: The ε-subunit open reading frame was amplified from a hippocampal cDNA library; expressed in transfected cells; host or cells: HEK-293 (transient, calcium phosphate); membranes prepared from the transfected cells

[5] = target: T1, α2/β1/ε GABAA receptors; details: α2/β1/ε subunits

Compound: CN1C(=O)CN=C(c2ccccc2F)c2cc([N+](=O)[O-])ccc21 [[^3H]flunitrazepam, flunitrazepam]
- Binding to transfected cell membranes [1]: did not bind

Compound: picrotoxin
- Block of GABA-evoked currents ([2]; α2/β1/ε): 82.5±7.4%

Compound: CC(C)c1cccc(C(C)C)c1O [propofol, 2,6-diisopropylphenol]
- Enhancement of GABA-evoked currents [3]: blocked the ability

Compound: CCCC(C)C1(CC)C(=O)NC(=O)NC1=O (stereo not drawn) [pentobarbital]
- Enhancement of GABA-evoked currents [3]: blocked the ability
- Emax [4]: < 15%

Compound: CN1CCc2cc3c(cc2[C@H]1[C@@H]1OC(=O)c2c1ccc1c2OCO1)OCO3 [bicuculline]
- Block of GABA-evoked currents ([2]; α2/β1/ε): 73.6±9.3%

Compound: 5α-pregnan-3α-ol-20-one [pregnanolone]
- Effect on [35S]TBPS binding [5]: no stimulatory phase
- Effect on submaximal GABA-activated currents ([2]; concentrations up to 100 nM, α2/β1/ε): No significant effects
- Potentiation of submaximal GABA-activated currents ([2]; high concentrations of the steroid, α2/β1/ε): up to 73%

Compound: CCOC(=O)c1ncn2c1CN(C)C(=O)c1cc(F)ccc1-2 [[^3H]flumazenil, flumazenil]
- Binding to transfected cell membranes [1]: did not bind

Compound: NCCCC(=O)O [GABA, γ-aminobutyric acid]
- Reversal potential of GABA-evoked currents ([2]; 100 μM GABA, α2/β1/ε, linear fit): 5.7 mV
- Hill slope of GABA concentration-response ([2]; α2/β1/ε cDNAs): 1.1
